# What was measured:
# Assay type in all cases: functional
# [1] = test system: Staphylococcus aureus; assay: Antibacterial activity against methicillin-resistant Staphylococcus aureus by agar dilution method
# [2] = test system: Streptococcus pneumoniae; assay: Antibacterial activity against penicillin-resistant Streptococcus pneumoniae by agar dilution method
# [3] = test system: Staphylococcus epidermidis; assay: Antibacterial activity against methicillin-resistant Staphylococcus epidermidis by agar dilution method
# [4] = test system: Haemophilus influenzae; assay: Antibacterial activity against Haemophilus influenzae by agar dilution method
# [5] = test system: Staphylococcus aureus; assay: Antibacterial activity against Staphylococcus aureus ATCC 25923 by broth micro dilution technique
# [6] = test system: Staphylococcus epidermidis; assay: Antibacterial activity against methicillin-susceptible Staphylococcus epidermidis by agar dilution method
# [7] = test system: Staphylococcus epidermidis; assay: Antibacterial activity against methicillin-resistant Staphylococcus epidermidis ATCC 12228 by broth micro dilution technique
# [8] = test system: Staphylococcus aureus; assay: Antibacterial activity against methicillin-susceptible Staphylococcus aureus by agar dilution method
# [9] = test system: Streptococcus pneumoniae; assay: Antibacterial activity against penicillin-susceptible Streptococcus pneumoniae by agar dilution method
# [10] = test system: Staphylococcus aureus; assay: Antibacterial activity against methicillin-resistant Staphylococcus aureus ATCC 43300 by broth micro dilution technique
# [11] = test system: Staphylococcus aureus; assay: Antibacterial activity against methicillin-susceptible Staphylococcus aureus ATCC 29213 by broth micro dilution technique
# [12] = test system: Escherichia coli; assay: Antibacterial activity against Escherichia coli by broth micro dilution technique
# [13] = test system: Haemophilus influenzae; assay: Antibacterial activity against Haemophilus influenzae Q1 by broth micro dilution technique
# [14] = test system: Streptococcus pyogenes; assay: Antibacterial activity against Streptococcus pyogenes 1307006P by broth micro dilution technique
# [15] = test system: Haemophilus influenzae; assay: Antibacterial activity against AcrA deficient Haemophilus influenzae H128 by broth micro dilution technique
# [16] = test system: Streptococcus pneumoniae; assay: Antibacterial activity against Streptococcus pneumoniae ERY2 by broth micro dilution technique
# [17] = test system: Streptococcus pyogenes; assay: Antibacterial activity against Streptococcus pyogenes 1308007P by broth micro dilution technique
# [18] = test system: Haemophilus influenzae; assay: Antibacterial activity against Haemophilus influenzae H128 by broth micro dilution technique
# [19] = test system: Streptococcus pneumoniae; assay: Antibacterial activity against Streptococcus pneumoniae N1387 by broth micro dilution technique
# [20] = test system: Moraxella catarrhalis; assay: Antibacterial activity against Moraxella catarrhalis 1502 by broth micro dilution technique
# [21] = test system: Staphylococcus aureus; assay: Antibacterial activity against Staphylococcus aureus OXFORD by broth micro dilution technique
# [22] = test system: Staphylococcus aureus; assay: Antibacterial activity against Staphylococcus aureus WCUH29 by broth micro dilution technique
# [23] = test system: Streptococcus pneumoniae; assay: Antibacterial activity against Streptococcus pneumoniae 1629 by broth micro dilution technique
# [24] = test system: Enterococcus faecalis; assay: Antibacterial activity against Enterococcus faecalis by broth micro dilution technique
# [25] = test system: Enterococcus faecium; assay: Antibacterial activity against Enterococcus faecium X7501 by broth micro dilution technique
SMILES,MIC [1] [µg/mL],MIC [2] [µg/mL],MIC [3] [µg/mL],MIC [4] [µg/mL],MIC [5] [µg/mL],MIC [6] [µg/mL],MIC [7] [µg/mL],MIC [8] [µg/mL],MIC [9] [µg/mL],MIC [10] [µg/mL],MIC [11] [µg/mL],further results
CCCC[C@H](CN(O)C=O)C(=O)N1CCC[C@H]1C(=O)Nc1ccc(F)c[n+]1[O-],0.125,0.5,0.125,2,0.5,0.5,1,0.5,0.125,0.5,2,
C=C1C[C@@H](C(=O)Nc2ccc(F)c[n+]2[O-])N(C(=O)[C@H](CC2CCCC2)CN(O)C=O)C1,0.125,0.0625,0.25,2,0.125,0.125,0.5,0.5,0.25,0.125,2,
C=C1C[C@@H](C(=O)Nc2ccc(O)cc2)N(C(=O)[C@H](CCCC)CN(O)C=O)C1,,,,,8,,8,,,4,32,
C=C1C[C@@H](C(=O)N2CCOCC2)N(C(=O)[C@H](CCCC)CN(O)C=O)C1,,,,,8,,16,,,8,> 64,
CC1(C)S[C@@H]2[C@H](NC(=O)Cc3ccccc3)C(=O)N2[C@H]1C(=O)O [PENICILLIN G],64,64,64,16,0.0625,4,2,0.5,2,64,1,
C=C1C[C@@H](C(=O)Nc2ncc(C)s2)N(C(=O)[C@H](CCCC)CN(O)C=O)C1,0.5,0.5,2,4,0.5,1,0.125,1,0.25,0.125,1,MIC [12]: 64 µg/mL; MIC [13]: 4 µg/mL; MIC [14]: 2 µg/mL; MIC [15]: ≤ 0.06 µg/mL; MIC [16]: 2 µg/mL; MIC [17]: 2 µg/mL; MIC [18]: 4 µg/mL; MIC [19]: 1 µg/mL; MIC [20]: ≤ 0.06 µg/mL; MIC [21]: 0.5 µg/mL; MIC [22]: 0.125 µg/mL; MIC [23]: 2 µg/mL; MIC [24]: 4 µg/mL; MIC [25]: 2 µg/mL
C=C1C[C@@H](C(=O)NC2CC2)N(C(=O)[C@H](CC2CCCC2)CN(O)C=O)C1,0.5,1,4,4,4,1,4,2,1,1,8,
C=C1C[C@@H](C(=O)Nc2ccccc2)N(C(=O)[C@H](CCCC)CN(O)C=O)C1,,,,,2,,2,,,1,8,
C=C1C[C@@H](C(=O)Nc2ccc(F)cn2)N(C(=O)[C@H](CCCC)CN(O)C=O)C1,,,,,1,,0.5,,,0.125,2,MIC [12]: > 64 µg/mL; MIC [13]: 16 µg/mL; MIC [14]: 4 µg/mL; MIC [15]: 0.5 µg/mL; MIC [16]: 8 µg/mL; MIC [17]: 4 µg/mL; MIC [18]: 16 µg/mL; MIC [19]: 4 µg/mL; MIC [20]: 0.25 µg/mL; MIC [21]: 4 µg/mL; MIC [22]: 0.5 µg/mL; MIC [23]: 16 µg/mL; MIC [24]: 32 µg/mL; MIC [25]: 4 µg/mL
CC1(C)S[C@@H]2[C@H](NC(=O)[C@H](N)c3ccc(O)cc3)C(=O)N2[C@H]1C(=O)O [AMOXICILLIN],,,,,,,,,,,,MIC [12]: 1 µg/mL; MIC [13]: 0.25 µg/mL; MIC [14]: ≤ 0.06 µg/mL; MIC [15]: 64 µg/mL; MIC [16]: ≤ 0.06 µg/mL; MIC [17]: ≤ 0.06 µg/mL; MIC [18]: 32 µg/mL; MIC [19]: 2 µg/mL; MIC [20]: ≤ 0.06 µg/mL; MIC [21]: 0.125 µg/mL; MIC [22]: 64 µg/mL; MIC [23]: ≤ 0.06 µg/mL; MIC [24]: 0.5 µg/mL; MIC [25]: 16 µg/mL
C=C1C[C@@H](C(=O)N2CCOCC2)N(C(=O)[C@H](CC2CCCC2)CN(O)C=O)C1,,,,,4,,4,,,2,8,
C=C1C[C@@H](C(=O)Nc2ccc(F)cc2)N(C(=O)[C@H](CCCC)CN(O)C=O)C1,,,,,1,,1,,,0.5,4,
CN[C@H](CC(C)C)C(=O)N[C@H]1C(=O)N[C@@H](CC(N)=O)C(=O)N[C@H]2C(=O)N[C@H]3C(=O)N[C@H](C(=O)N[C@H](C(=O)O)c4cc(O)cc(O)c4-c4cc3ccc4O)[C@H](O)c3ccc(c(Cl)c3)Oc3cc2cc(c3O[C@@H]2O[C@H](CO)[C@@H](O)[C@H](O)[C@H]2O[C@H]2C[C@](C)(N)[C@H](O)[C@H](C)O2)Oc2ccc(cc2Cl)[C@H]1O [VANCOMYCIN],,1,,,,,,,1,,,
C=C1C[C@@H](C(=O)Nc2ccc(F)c[n+]2[O-])N(C(=O)[C@H](CCCC)CN(O)C=O)C1,,,,,2,,2,,,1,4,
C=C1C[C@@H](C(=O)Nc2ccc(F)cn2)N(C(=O)[C@H](CC2CCCC2)CN(O)C=O)C1,0.25,0.25,0.5,2,0.5,0.5,0.125,0.5,0.25,0.0625,1,
O=C(O)c1cn(C2CC2)c2cc(N3CCNCC3)c(F)cc2c1=O [CIPROFLOXACIN],1,,1,0.125,0.5,0.25,0.25,1,2,1,0.5,
C=C1C[C@@H](C(=O)Nc2ccccc2)N(C(=O)[C@H](CC2CCCC2)CN(O)C=O)C1,,,,,0.5,,0.5,,,0.25,1,
CC(=O)NC[C@H]1CN(c2ccc(N3CCOCC3)c(F)c2)C(=O)O1 [LINEZOLID],0.5,,1,,,1,0.5,1,,,,
C=C1C[C@@H](C(=O)Nc2ccc(F)cc2)N(C(=O)[C@H](CC2CCCC2)CN(O)C=O)C1,0.25,0.25,0.25,4,1,0.5,1,1,0.25,0.5,2,
C=C1C[C@@H](C(=O)Nc2ncc(C)s2)N(C(=O)[C@H](CC2CCCC2)CN(O)C=O)C1,0.0625,0.25,0.5,1,0.0625,1,0.125,1,0.25,0.0625,0.5,

# Source: ChEMBL document CHEMBL1667756, “Design, synthesis and antibacterial activity of 3-methylenepyrrolidine formyl hydroxyamino derivatives as novel peptide deformylase inhibitors” (2011)
